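Exposure lasted 48 hours, with cells grown in 96-well plates and compounds tested at five concentrations. GI50: concentration for 50% inhibition of growth. TGI: concentration producing complete growth inhibition.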
Legend:
Assay in all cases: NCI anticancer screen, dose series, 48 h
PC-3 prostate = test system: PC-3 prostate
NCI-H23 lung = test system: NCI-H23 lung
RPMI-8226 leukemia = test system: RPMI-8226 leukemia
IGROV1 ovarian = test system: IGROV1 ovarian
MCF7 breast = test system: MCF7 breast
OVCAR-3 ovarian = test system: OVCAR-3 ovarian
HCC-2998 colon = test system: HCC-2998 colon
SW-620 colon = test system: SW-620 colon
HT29 colon = test system: HT29 colon
CCRF-CEM leukemia = test system: CCRF-CEM leukemia

Compound | GI50 (PC-3 prostate) | TGI (PC-3 prostate) | GI50 (NCI-H23 lung) | TGI (NCI-H23 lung) | GI50 (RPMI-8226 leukemia) | TGI (RPMI-8226 leukemia) | GI50 (IGROV1 ovarian) | TGI (IGROV1 ovarian) | GI50 (MCF7 breast) | TGI (MCF7 breast) | GI50 (OVCAR-3 ovarian) | TGI (OVCAR-3 ovarian) | GI50 (HCC-2998 colon) | TGI (HCC-2998 colon) | GI50 (SW-620 colon) | TGI (SW-620 colon) | GI50 (HT29 colon) | TGI (HT29 colon) | GI50 (CCRF-CEM leukemia) | TGI (CCRF-CEM leukemia)
Clc1nc(Cl)c2ncn(Cc3cccc(COc4cccc(OCc5cccc(Cn6cnc7c(Cl)nc(Cl)nc76)c5)c4)c3)c2n1 | 14.6 µM | 47 µM | 54.5 µM | > 100 µM | 2.61 µM | 54.8 µM | 60.8 µM | > 100 µM | 31.1 µM | > 100 µM | 7.26 µM | 34.7 µM | 17.9 µM | 33.2 µM | > 100 µM | > 100 µM | > 100 µM | > 100 µM | 5.24 µM | > 100 µM
CC/C=C\C[C@@H]1C/C=C2/C(=O)C=C[C@H]2C/C=C\CCCC(=O)O1 | 0.535 µM | 2.39 µM | 0.993 µM | 3.2 µM | 0.331 µM | 1.33 µM | 0.91 µM | 3.93 µM | 0.356 µM | 2.12 µM | 0.428 µM | 1.38 µM | 0.259 µM | 0.533 µM | 0.483 µM | 2.02 µM | 0.267 µM | 0.677 µM | 0.24 µM | 1.58 µM
CCCCN=C(N)c1ccc(OCCSCCOc2ccc(C(N)=NCCCC)cc2)cc1 | 4.4 µM | 98.6 µM | 2.87 µM | > 100 µM | 2.71 µM | 53.4 µM | 16.4 µM | > 100 µM | 3.34 µM | > 100 µM | 4.97 µM | > 100 µM | 5.87 µM | > 100 µM | 10.2 µM | > 100 µM | 2.79 µM | > 100 µM | 20.7 µM | > 100 µM
COc1cc(NC(=O)c2cc(O)c(CC=C(C)C)c(O)c2)cc2c1O[C@]1(C)CC[C@@H](O)C(C)(C)[C@H]1C2 | 3.03 µM | 35.1 µM | 3.99 µM | 25.7 µM | 0.428 µM | 2.73 µM | 7.51 µM | 54.9 µM | 2.1 µM | 15.4 µM | 5.93 µM | 83.5 µM | 10.6 µM | 24.8 µM | 3.09 µM | 13.8 µM | 3.47 µM | 11.9 µM | 2.21 µM | > 100 µM
Nc1ncc(-c2cnn(CCO)c2)c2scc(-c3ccc(NC(=O)Nc4cccc(F)c4)cc3)c12 | 0.288 µM | 3.28 µM | 0.211 µM | 2.3 µM | 0.454 µM | 2.81 µM | 0.285 µM | 2.61 µM | 0.226 µM | 3.7 µM | 1.16 µM | 5.87 µM | 1.39 µM | 6.79 µM | 0.179 µM | 3.74 µM | 0.283 µM | 2.07 µM | < 0.01 µM | 5.01 µM
COc1cc(C2=NN(C(C)=O)C(c3ccc(OC(C)=O)cc3OC(C)=O)O2)c(OC(C)=O)c2ccccc12 (configuration not stated) | 0.753 µM | 35.4 µM | 2.55 µM | > 78.9 µM | 2.74 µM | 14.7 µM | 0.82 µM | 42.6 µM | 2.73 µM | 16.1 µM | 0.402 µM | 13.9 µM | 1.03 µM | 27.9 µM | 0.608 µM | 27.5 µM | 4.48 µM | 41.3 µM | 0.338 µM | 8.03 µM
COC(=O)Nc1nc2ccc(Oc3ccc(NC(=O)Nc4ccccc4)cc3)cc2[nH]1 | 0.15 µM | > 9.6 µM | 0.545 µM | > 12.3 µM | 0.748 µM | > 10 µM | 0.665 µM | > 10.9 µM | 0.0932 µM | – | 0.0713 µM | 0.205 µM | 0.458 µM | > 17.7 µM | 0.101 µM | > 10.2 µM | 0.0937 µM | 1.01 µM | 0.123 µM | > 8.59 µM
COc1cc[nH]c1/C=C1\C(=O)Nc2ccccc21 | 8.78 µM | > 25 µM | 7.7 µM | > 25 µM | 14.5 µM | > 25 µM | 8.48 µM | > 25 µM | 5.79 µM | > 25 µM | > 21.5 µM | > 25 µM | > 20.7 µM | > 25 µM | 7.24 µM | > 25 µM | 12.3 µM | > 25 µM | 13.1 µM | > 25 µM
COc1cc(OC)c(/C=C/C(=O)c2c(OC)cccc2OC)c(OC)c1 | 1.17 µM | > 100 µM | 1.46 µM | > 27.6 µM | 0.666 µM | > 100 µM | 0.497 µM | – | 0.392 µM | > 100 µM | 0.431 µM | – | 1.15 µM | 6.91 µM | 0.375 µM | > 32.6 µM | 0.398 µM | > 100 µM | 1.23 µM | > 100 µM
CN/N=C(/CCN1CCCC1)CC(c1ccccc1)c1c(O)c2ccccc2oc1=O (configuration not stated) | – | > 100 µM | – | > 100 µM | – | > 31.6 µM | – | > 100 µM | – | > 100 µM | – | > 100 µM | – | > 100 µM | – | > 100 µM | – | > 100 µM | – | > 100 µM

Source: PubChem BioAssay (NCI)
